Numbered stars: 1 amine (or outer) side, 2 acyl side, 3 side chain; on linkers, the order of the positions; unused ones are H or OH. Bridge positions count the residues as written; N and C are the ends. Square brackets hold non-standard residues; d marks the D form. Peptide text beside a SMILES is read from it. * marks the point of attachment. C20 diacid = O=C(O)CCCCCCCCCCCCCCCCCCC(=O)*; γGlu = O=C(O)[C@H](CCC(=O)[*:2])N[*:1]; NMeI = CC[C@H](C)[C@H](NC)C(=O)O; Sar = CNCC(=O)O
How the values were obtained:
[1] = target: T1, human calcitonin receptor (hCTR2) (Homo sapiens, UniProt P30988); assay: hCTR2 assay: induction of cAMP (AlphaScreen cAMP Assay kit) in COS7 cells expressing hCTR2; assay type: cell-based; details: cAMP induction in COS7 cells expressing hCTR2; average of a minimum of 3 determinations; read-out: hCTR2 EC50
T1 construct: expressed in transfected cells
T1 sequence (P30988 25-474): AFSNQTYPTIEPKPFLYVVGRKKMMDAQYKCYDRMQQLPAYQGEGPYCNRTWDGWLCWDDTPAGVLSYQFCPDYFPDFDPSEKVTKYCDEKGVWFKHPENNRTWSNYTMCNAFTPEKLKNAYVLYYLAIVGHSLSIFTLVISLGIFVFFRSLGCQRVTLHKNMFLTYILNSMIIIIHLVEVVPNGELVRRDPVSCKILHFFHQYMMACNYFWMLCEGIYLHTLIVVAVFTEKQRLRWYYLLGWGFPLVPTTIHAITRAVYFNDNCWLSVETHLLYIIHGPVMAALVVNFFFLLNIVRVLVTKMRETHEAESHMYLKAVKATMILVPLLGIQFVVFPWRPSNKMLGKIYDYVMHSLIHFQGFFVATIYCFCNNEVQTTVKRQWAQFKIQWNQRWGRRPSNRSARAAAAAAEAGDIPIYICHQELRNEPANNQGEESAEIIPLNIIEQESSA
Procedure, shortened: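 cAMP read-out by AlphaScreen after cell lysis; EC50 and % efficacy vs pramlintide from 4-parameter logistic fitting. Agonist stimulation: hCTR2-COS7 stable cells, 15 min, 37° C, 100 µM IBMX, 0.1% casein, Tyrode/HEPES pH 7.4.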

[2] = target: T2, human amylin receptor 3 (hAMYR3) consisting of hCTR2 co-expressed with human Receptor Activity Modifying Protein 3 (hRAMP3) (Homo sapiens, UniProt O60896+P30988); assay: hAMYR3 assay: induction of cAMP (AlphaScreen cAMP Assay kit) in COS7 cells expressing hAMYR3; assay type: cell-based; details: cAMP induction in COS7 cells expressing hAMYR3; average of a minimum of 3 determinations; read-out: hAMY R3 EC50
T2 construct: expressed in transfected cells
T2 sequence (P30988 25-474): T1 sequence (P30988 25-474)
T2 sequence (O60896 24-148 partner): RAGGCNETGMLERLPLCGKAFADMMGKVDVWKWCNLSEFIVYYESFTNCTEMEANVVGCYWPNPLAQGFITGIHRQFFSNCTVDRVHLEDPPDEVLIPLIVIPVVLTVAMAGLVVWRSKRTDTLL
Procedure, shortened: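 cAMP accumulation read by AlphaScreen in lysates of RAMP-naive COS7 cells stably transfected with hCTR2 plus hRAMP3. Cells exposed to peptide dilutions for 15 min, 37° C, with 100 µM IBMX; 4PL fitting gave EC50 and efficacy relative to pramlintide.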

[3] = Solubility assessment (turbidity absorbance at 325 nm); assay type: physicochemical; details: stock 2 mg/ml diluted 1:1, ambient temperature (typically 25°C), n=1; for Solubility, Acetate buffer pH 4: 100 mM acetate buffer pH 4.0; for Solubility, Acetate buffer pH 5: 100 mM acetate buffer pH 5.0; for Solubility, Histidine buffer pH 6: 100 mM histidine buffer pH 6.0; for Solubility, Histidine buffer pH 7: 100 mM histidine buffer pH 7.0; for Solubility, Phosphate buffer pH 6: 100 mM phosphate buffer pH 6.0; for Solubility, Phosphate buffer pH 7: 100 mM phosphate buffer pH 7.0; for Solubility, Phosphate buffer pH 7.5: 100 mM phosphate buffer pH7.5
Procedure, shortened: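 Turbidity read as absorbance at 325 nm (also 280 nm), single samples at ambient temperature (typically 25°C); ≤ 0.02 units counts as ≥ 1 mg/ml soluble. Samples made by 1:1 dilution of a 2 mg/ml acidic stock into 100 mM acetate, histidine or phosphate buffers, pH 4.0–7.5.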

| Structure (SMILES) | EC50 [1] [pM] | EC50 [2] [pM] | Solubility, Acetate buffer pH 4 [3] | Solubility, Acetate buffer pH 5 [3] | Solubility, Histidine buffer pH 6 [3] | Solubility, Histidine buffer pH 7 [3] | Solubility, Phosphate buffer pH 6 [3] | Solubility, Phosphate buffer pH 7 [3] | Solubility, Phosphate buffer pH 7.5 [3] |
| --- | --- | --- | --- | --- | --- | --- | --- | --- | --- |
| CC[C@H](C)[C@@H](C(=O)N[C@@H](CC(C)C)C(=O)N[C@@H](CO)C(=O)N[C@@H](CO)C(=O)N[C@H](C(=O)N[C@@H](CCC(=O)O)C(=O)N[C@H](C(=O)NCC(=O)N[C@@H](CO)C(=O)N[C@@H](CCC(=O)O)C(=O)N[C@H](C(=O)N1CCC[C@H]1C(N)=O)[C@@H](C)O)C(C)C)[C@@H](C)O)N(C)C(=O)[C@H](C)NC(=O)CN(C)C(=O)[C@H](Cc1ccccc1)NC(=O)[C@H](CO)NC(=O)[C@H](CO)NC(=O)[C@H](CO)NC(=O)[C@H](CO)NC(=O)[C@H](CCCNC(=N)N)NC(=O)[C@H](Cc1c[nH]cn1)NC(=O)[C@H](CC(C)C)NC(=O)[C@H](Cc1ccccc1)NC(=O)[C@H](CCC(=O)O)NC(=O)[C@H](C)NC(=O)[C@H](CC(C)C)NC(=O)[C@H](CCCNC(=N)N)NC(=O)[C@H](CCC(=O)O)NC(=O)[C@@H](NC(=O)[C@H](C)NC(=O)[C@@H]1CSSC[C@H](NC(=O)[C@H](CCCNC(=N)N)NC(=O)CC[C@H](NC(=O)CCCCCCCCCCCCCCCCCCC(=O)O)C(=O)O)C(=O)N2CCC[C@H]2C(=O)N[C@@H]([C@@H](C)O)C(=O)N[C@@H](C)C(=O)N[C@@H]([C@@H](C)O)C(=O)N1)[C@@H](C)O [Compound 136, [19CD]-isoGlu-RC()PTATC()ATERLAEFLHRSSSSF-Gly(Me)-A-Ile(Me)-LSSTEVGSETP-NH2] ({C20 diacid-γGlu}-RCPTATCATERLAEFLHRSSSSF[Sar]A[NMeI]LSSTEVGSETP-NH2; disulfide 2-7) | 120 | 290 | SS (SS indicates solubility ≥ 1mg/ml) | SS (SS indicates solubility ≥ 1mg/ml) | SS (SS indicates solubility ≥ 1mg/ml) | SS (SS indicates solubility ≥ 1mg/ml) | SS (SS indicates solubility ≥ 1mg/ml) | SS (SS indicates solubility ≥ 1mg/ml) | SS (SS indicates solubility ≥ 1mg/ml) |
| CC[C@H](C)[C@@H](C(=O)N[C@@H](CC(C)C)C(=O)N[C@@H](CO)C(=O)N[C@@H](CO)C(=O)N[C@H](C(=O)N[C@@H](CCC(=O)O)C(=O)N[C@H](C(=O)NCC(=O)N[C@@H](CO)C(=O)N[C@@H](CCC(=O)O)C(=O)N[C@H](C(=O)N1CCC[C@H]1C(N)=O)[C@@H](C)O)C(C)C)[C@@H](C)O)N(C)C(=O)[C@H](C)NC(=O)CN(C)C(=O)[C@H](Cc1ccccc1)NC(=O)[C@H](CO)NC(=O)[C@H](CO)NC(=O)[C@H](CO)NC(=O)[C@H](CO)NC(=O)[C@H](CCCNC(=N)N)NC(=O)[C@H](Cc1c[nH]cn1)NC(=O)[C@H](CC(C)C)NC(=O)[C@H](Cc1ccccc1)NC(=O)[C@H](CCC(=O)O)NC(=O)[C@H](C)NC(=O)[C@H](CC(C)C)NC(=O)[C@H](CCCNC(=N)N)NC(=O)[C@H](CCC(=O)O)NC(=O)[C@@H](NC(=O)[C@H](C)NC(=O)[C@@H]1CSSC[C@H](NC(=O)[C@H](CCCNC(=N)N)NC(=O)CC[C@H](NC(=O)CCCCCCCCCCCCCCCCCCC(=O)O)C(=O)O)C(=O)N[C@@H](CC(=O)O)C(=O)N[C@@H]([C@@H](C)O)C(=O)N[C@@H](C)C(=O)N[C@@H]([C@@H](C)O)C(=O)N1)[C@@H](C)O [Compound 137, [19CD]-isoGlu-RC()DTATC()ATERLAEFLHRSSSSF-Gly(Me)-A-Ile(Me)-LSSTEVGSETP-NH2] ({C20 diacid-γGlu}-RCDTATCATERLAEFLHRSSSSF[Sar]A[NMeI]LSSTEVGSETP-NH2; disulfide 2-7) | 240 | 860 | SS (SS indicates solubility ≥ 1mg/ml) | SS (SS indicates solubility ≥ 1mg/ml) | SS (SS indicates solubility ≥ 1mg/ml) | SS (SS indicates solubility ≥ 1mg/ml) | SS (SS indicates solubility ≥ 1mg/ml) | SS (SS indicates solubility ≥ 1mg/ml) | SS (SS indicates solubility ≥ 1mg/ml) |
| CC[C@H](C)[C@@H](C(=O)N[C@@H](CC(C)C)C(=O)N[C@@H](CO)C(=O)N[C@@H](CO)C(=O)N[C@H](C(=O)N[C@@H](CCC(=O)O)C(=O)N[C@H](C(=O)NCC(=O)N[C@@H](CO)C(=O)N[C@@H](CCC(=O)O)C(=O)N[C@H](C(=O)N1CCC[C@H]1C(N)=O)[C@@H](C)O)C(C)C)[C@@H](C)O)N(C)C(=O)[C@H](C)NC(=O)CN(C)C(=O)[C@H](Cc1ccccc1)NC(=O)[C@H](CO)NC(=O)[C@H](CO)NC(=O)[C@H](CO)NC(=O)[C@H](CO)NC(=O)[C@H](CCCNC(=N)N)NC(=O)[C@H](Cc1c[nH]cn1)NC(=O)[C@H](CC(C)C)NC(=O)[C@H](Cc1ccccc1)NC(=O)[C@H](CCC(=O)O)NC(=O)[C@H](C)NC(=O)[C@H](CC(C)C)NC(=O)[C@H](CCCNC(=N)N)NC(=O)[C@H](CO)NC(=O)[C@@H](NC(=O)[C@H](C)NC(=O)[C@@H]1CSSC[C@H](NC(=O)[C@H](CCCNC(=N)N)NC(=O)CC[C@H](NC(=O)CCCCCCCCCCCCCCCCCCC(=O)O)C(=O)O)C(=O)N[C@@H](CC(=O)O)C(=O)N[C@@H]([C@@H](C)O)C(=O)N[C@@H](C)C(=O)N[C@@H]([C@@H](C)O)C(=O)N1)[C@@H](C)O [Compound 138, [19CD]-isoGlu-RC()DTATC()ATSRLAEFLHRSSSSF-Gly(Me)-A-Ile(Me)-LSSTEVGSETP-NH2] ({C20 diacid-γGlu}-RCDTATCATSRLAEFLHRSSSSF[Sar]A[NMeI]LSSTEVGSETP-NH2; disulfide 2-7) | 230 | 340 | SS (SS indicates solubility ≥ 1mg/ml) | SS (SS indicates solubility ≥ 1mg/ml) | SS (SS indicates solubility ≥ 1mg/ml) | SS (SS indicates solubility ≥ 1mg/ml) | SS (SS indicates solubility ≥ 1mg/ml) | SS (SS indicates solubility ≥ 1mg/ml) | SS (SS indicates solubility ≥ 1mg/ml) |
